System: Amaranthus retroflexus (AMARE)
Assay: Example B post-emergence herbicidal activity, glasshouse pot test
Type: in vivo
Conditions: 312 h, rate 250 g/ha, evaluated after 13 days, read-out: Post-emergence activity AMARE (100=total damage to plant; 0=no damage to plant)
Summary of the method: (§1)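 Damage rated 13 days after treatment on a 0 (no damage) to 100 (total damage) scale. Spray of acetone/water (50:50) with 0.5% Tween 20 went onto soil-sown pots at day 1 (pre-emergence) or day 8 (post-emergence); glasshouse kept at 24/16 °C, 14 h light, 65% humidity.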

In order of falling pest or weed control at 250 g/ha:
1. CCc1ccc(-c2cc(Cl)c(Cl)cc2Cl)cc1C1=C(O)C(C)(C)OC(C)(C)C1=O [Compound A-144]  40%
2. CC1(C)OC(C)(C)C(O)=C(c2cc(-c3ccc(Cl)cc3F)ccc2Cl)C1=O [Compound A-141]  0%
3. CC1(C)OC(C)(C)C(O)=C(c2cc(-c3ccc(Cl)cc3)ccc2Cl)C1=O [Compound A-142]  0%
4. Cc1ccc(-c2cnn(Cc3ccccc3)c2)cc1C1=C(O)C(C)(C)OC(C)(C)C1=O [Compound A-143]  0%

System: Avena fatua (AVEFA)
Assay: as above
Type: in vivo
Conditions: 312 h, rate 250 g/ha, evaluated after 13 days, read-out: Post-emergence activity AVEFA (100=total damage to plant; 0=no damage to plant)
Summary of the method: as §1

In order of rising pest or weed control at 250 g/ha:
1. CC1(C)OC(C)(C)C(O)=C(c2cc(-c3ccc(Cl)cc3F)ccc2Cl)C1=O [Compound A-141]  50%
2. CC1(C)OC(C)(C)C(O)=C(c2cc(-c3ccc(Cl)cc3)ccc2Cl)C1=O [Compound A-142]  80%
3. Cc1ccc(-c2cnn(Cc3ccccc3)c2)cc1C1=C(O)C(C)(C)OC(C)(C)C1=O [Compound A-143]  80%
4. CCc1ccc(-c2cc(Cl)c(Cl)cc2Cl)cc1C1=C(O)C(C)(C)OC(C)(C)C1=O [Compound A-144]  100%

System: Alopecurus myosuroides (ALOMY)
Assay: as above
Type: in vivo
Conditions: 312 h, rate 250 g/ha, evaluated after 13 days, read-out: Post-emergence activity ALOMY (100=total damage to plant; 0=no damage to plant)
Summary of the method: as §1

In order of falling pest or weed control at 250 g/ha:
1. CC1(C)OC(C)(C)C(O)=C(c2cc(-c3ccc(Cl)cc3)ccc2Cl)C1=O [Compound A-142]  100%
2. CCc1ccc(-c2cc(Cl)c(Cl)cc2Cl)cc1C1=C(O)C(C)(C)OC(C)(C)C1=O [Compound A-144]  100%
3. Cc1ccc(-c2cnn(Cc3ccccc3)c2)cc1C1=C(O)C(C)(C)OC(C)(C)C1=O [Compound A-143]  90%
4. CC1(C)OC(C)(C)C(O)=C(c2cc(-c3ccc(Cl)cc3F)ccc2Cl)C1=O [Compound A-141]  50%

System: Setaria faberi (SETFA)
Assay: as above
Type: in vivo
Conditions: 312 h, rate 250 g/ha, evaluated after 13 days, read-out: Post-emergence activity SETFA (100=total damage to plant; 0=no damage to plant)
Summary of the method: as §1

In order of falling pest or weed control at 250 g/ha:
1. CCc1ccc(-c2cc(Cl)c(Cl)cc2Cl)cc1C1=C(O)C(C)(C)OC(C)(C)C1=O [Compound A-144]  100%
2. Cc1ccc(-c2cnn(Cc3ccccc3)c2)cc1C1=C(O)C(C)(C)OC(C)(C)C1=O [Compound A-143]  90%
3. CC1(C)OC(C)(C)C(O)=C(c2cc(-c3ccc(Cl)cc3F)ccc2Cl)C1=O [Compound A-141]  80%
4. CC1(C)OC(C)(C)C(O)=C(c2cc(-c3ccc(Cl)cc3)ccc2Cl)C1=O [Compound A-142]  80%

System: Echinochloa crus-galli (ECHCG)
Assay: as above
Type: in vivo
Conditions: 312 h, rate 250 g/ha, evaluated after 13 days, read-out: Post-emergence activity ECHCG (100=total damage to plant; 0=no damage to plant)
Summary of the method: as §1

In order of falling pest or weed control at 250 g/ha:
1. CC1(C)OC(C)(C)C(O)=C(c2cc(-c3ccc(Cl)cc3F)ccc2Cl)C1=O [Compound A-141]  100%
2. CC1(C)OC(C)(C)C(O)=C(c2cc(-c3ccc(Cl)cc3)ccc2Cl)C1=O [Compound A-142]  100%
3. Cc1ccc(-c2cnn(Cc3ccccc3)c2)cc1C1=C(O)C(C)(C)OC(C)(C)C1=O [Compound A-143]  100%
4. CCc1ccc(-c2cc(Cl)c(Cl)cc2Cl)cc1C1=C(O)C(C)(C)OC(C)(C)C1=O [Compound A-144]  100%

System: Amaranthus retroflexus (AMARE)
Assay: Example B pre-emergence herbicidal activity, glasshouse pot test
Type: in vivo
Conditions: 312 h, rate 250 g/ha, evaluated after 13 days, read-out: Pre-emergence activity AMARE (100=total damage to plant; 0=no damage to plant)
Summary of the method: as §1

In order of falling pest or weed control at 250 g/ha:
1. CCc1ccc(-c2cc(Cl)c(Cl)cc2Cl)cc1C1=C(O)C(C)(C)OC(C)(C)C1=O [Compound A-144]  30%
2. CC1(C)OC(C)(C)C(O)=C(c2cc(-c3ccc(Cl)cc3F)ccc2Cl)C1=O [Compound A-141]  0%
3. CC1(C)OC(C)(C)C(O)=C(c2cc(-c3ccc(Cl)cc3)ccc2Cl)C1=O [Compound A-142]  0%
4. Cc1ccc(-c2cnn(Cc3ccccc3)c2)cc1C1=C(O)C(C)(C)OC(C)(C)C1=O [Compound A-143]  0%

System: Avena fatua (AVEFA)
Assay: as above
Type: in vivo
Conditions: 312 h, rate 250 g/ha, evaluated after 13 days, read-out: Pre-emergence activity AVEFA (100=total damage to plant; 0=no damage to plant)
Summary of the method: as §1

In order of rising pest or weed control at 250 g/ha:
1. Cc1ccc(-c2cnn(Cc3ccccc3)c2)cc1C1=C(O)C(C)(C)OC(C)(C)C1=O [Compound A-143]  0%
2. CC1(C)OC(C)(C)C(O)=C(c2cc(-c3ccc(Cl)cc3F)ccc2Cl)C1=O [Compound A-141]  30%
3. CC1(C)OC(C)(C)C(O)=C(c2cc(-c3ccc(Cl)cc3)ccc2Cl)C1=O [Compound A-142]  70%
4. CCc1ccc(-c2cc(Cl)c(Cl)cc2Cl)cc1C1=C(O)C(C)(C)OC(C)(C)C1=O [Compound A-144]  80%

System: Alopecurus myosuroides (ALOMY)
Assay: as above
Type: in vivo
Conditions: 312 h, rate 250 g/ha, evaluated after 13 days, read-out: Pre-emergence activity ALOMY (100=total damage to plant; 0=no damage to plant)
Summary of the method: as §1

In order of rising pest or weed control at 250 g/ha:
1. CC1(C)OC(C)(C)C(O)=C(c2cc(-c3ccc(Cl)cc3F)ccc2Cl)C1=O [Compound A-141]  20%
2. Cc1ccc(-c2cnn(Cc3ccccc3)c2)cc1C1=C(O)C(C)(C)OC(C)(C)C1=O [Compound A-143]  20%
3. CC1(C)OC(C)(C)C(O)=C(c2cc(-c3ccc(Cl)cc3)ccc2Cl)C1=O [Compound A-142]  60%
4. CCc1ccc(-c2cc(Cl)c(Cl)cc2Cl)cc1C1=C(O)C(C)(C)OC(C)(C)C1=O [Compound A-144]  100%

System: Setaria faberi (SETFA)
Assay: as above
Type: in vivo
Conditions: 312 h, rate 250 g/ha, evaluated after 13 days, read-out: Pre-emergence activity SETFA (100=total damage to plant; 0=no damage to plant)
Summary of the method: as §1

In order of falling pest or weed control at 250 g/ha:
1. CC1(C)OC(C)(C)C(O)=C(c2cc(-c3ccc(Cl)cc3)ccc2Cl)C1=O [Compound A-142]  100%
2. CCc1ccc(-c2cc(Cl)c(Cl)cc2Cl)cc1C1=C(O)C(C)(C)OC(C)(C)C1=O [Compound A-144]  100%
3. CC1(C)OC(C)(C)C(O)=C(c2cc(-c3ccc(Cl)cc3F)ccc2Cl)C1=O [Compound A-141]  80%
4. Cc1ccc(-c2cnn(Cc3ccccc3)c2)cc1C1=C(O)C(C)(C)OC(C)(C)C1=O [Compound A-143]  70%

System: Echinochloa crus-galli (ECHCG)
Assay: as above
Type: in vivo
Conditions: 312 h, rate 250 g/ha, evaluated after 13 days, read-out: Pre-emergence activity ECHCG (100=total damage to plant; 0=no damage to plant)
Summary of the method: as §1

In order of rising pest or weed control at 250 g/ha:
1. Cc1ccc(-c2cnn(Cc3ccccc3)c2)cc1C1=C(O)C(C)(C)OC(C)(C)C1=O [Compound A-143]  0%
2. CC1(C)OC(C)(C)C(O)=C(c2cc(-c3ccc(Cl)cc3)ccc2Cl)C1=O [Compound A-142]  70%
3. CCc1ccc(-c2cc(Cl)c(Cl)cc2Cl)cc1C1=C(O)C(C)(C)OC(C)(C)C1=O [Compound A-144]  90%
4. CC1(C)OC(C)(C)C(O)=C(c2cc(-c3ccc(Cl)cc3F)ccc2Cl)C1=O [Compound A-141]  100%

Source: US8680012B2, “4-phenyl-pyrane-3,5-diones,4-phenyl-thiopyrane-3,6-diones and cyclohexanetriones as novel herbicides” (Syngenta Crop Protection LLC, priority 2006, dated 2014)
